# Test results from PubChem BioAssay (NCI).
#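 The concentration for 50% growth inhibition is given as GI50. Definition used: TGI = concentration required for complete inhibition of growth.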
# Columns and labels:
# Test in all cases: inhibition of tumour cell growth, NCI panel, 384-well format
# [1] = system: SNB-75 CNS
# [2] = system: IGROV1 ovarian
# [3] = system: OVCAR-5 ovarian
# [4] = system: HOP-92 NSCLC
# [5] = system: NCI-H23 lung
# [6] = system: U251 glioblastoma
# [7] = system: RPMI-8226 leukemia
# [8] = system: A498 renal
# [9] = system: SF-539 CNS
# [10] = system: SF-295 CNS
# [11] = system: NCI/ADR-RES ovarian
# [12] = system: SW-620 colon
# [13] = system: OVCAR-4 ovarian
# [14] = system: RXF 393 renal
# [15] = system: LOX IMVI melanoma
# [16] = system: UO-31 renal
# [17] = system: SF-268 CNS
# [18] = system: PC-3 prostate
# [19] = system: SNB-19 CNS
# [20] = system: HOP-62 NSCLC
# [21] = system: EKVX NSCLC
# [22] = system: OVCAR-3 ovarian
# [23] = system: MCF7 breast
# [24] = system: TK-10 renal
# [25] = system: ACHN renal
# [26] = system: HL-60(TB) leukemia
# [27] = system: MOLT-4 leukemia
# [28] = system: MALME-3M melanoma
# [29] = system: NCI-H226 lung
# [30] = system: SK-MEL-5 melanoma
# [31] = system: BT-549 breast
# [32] = system: 786-0 renal
# [33] = system: CCRF-CEM leukemia
# [34] = system: HS 578T breast
# [35] = system: OVCAR-8 ovarian
# [36] = system: A549 NSCLC
# [37] = system: NCI-H460 NSCLC
# [38] = system: MDA-MB-435 melanoma
# [39] = system: HCC-2998 colon
# [40] = system: HCT-15 colon
# [41] = system: T-47D breast
# [42] = system: HCT-116 colon
# [43] = system: CAKI-1 renal
# [44] = system: SK-OV-3 ovarian
# [45] = system: K-562 leukemia
# [46] = system: SN12C renal
# [47] = system: HT29 colon
# [48] = system: NCI-H522 lung
# [49] = system: MDA-MB-468 breast
smiles,measurement,setting,value
COc1cc(C(=O)NC2CCN(C)CC2)c(F)cc1Nc1ncc2c(n1)N(C1CCCC1)CC(F)(F)C(=O)N2C,GI50,[1],47.2 nM
same,TGI,[1],3.28 µM
same,GI50,[2],29.8 nM
same,TGI,[2],2820 nM
same,GI50,[3],14 nM
same,TGI,[3],1730 nM
same,GI50,[4],41.3 nM
same,TGI,[4],1400 nM
same,GI50,[5],< 10 nM
same,TGI,[5],16.7 nM
same,GI50,[6],< 10 nM
same,TGI,[6],2360 nM
same,GI50,[7],16.3 nM
same,TGI,[7],31.5 nM
same,GI50,[8],99.5 nM
same,TGI,[8],10.7 µM
same,GI50,[9],20.5 nM
same,TGI,[9],1060 nM
same,GI50,[10],30.8 nM
same,TGI,[10],272 nM
same,GI50,[11],50.9 nM
same,TGI,[11],206 nM
same,GI50,[12],< 10 nM
same,TGI,[12],28.4 nM
same,GI50,[13],1630 nM
same,TGI,[13],5.88 µM
same,GI50,[14],< 10 nM
same,TGI,[14],27.4 nM
same,GI50,[15],16.7 nM
same,TGI,[15],1150 nM
same,GI50,[16],52.1 nM
same,TGI,[16],2030 nM
same,GI50,[17],< 10 nM
same,TGI,[17],< 10 nM
same,GI50,[18],33.4 nM
same,TGI,[18],13.1 µM
same,GI50,[19],17.5 nM
same,TGI,[19],5.75 µM
same,GI50,[20],< 10 nM
same,TGI,[20],2900 nM
same,GI50,[21],91.7 nM
same,TGI,[21],6.98 µM
same,GI50,[22],< 10 nM
same,TGI,[22],14.1 nM
same,GI50,[23],< 10 nM
same,TGI,[23],1510 nM
same,GI50,[24],1380 nM
same,TGI,[24],5.99 µM
same,GI50,[25],83.1 nM
same,TGI,[25],11.3 µM
same,GI50,[26],< 10 nM
same,TGI,[26],< 10 nM
same,GI50,[27],< 10 nM
same,TGI,[27],< 10 nM
same,GI50,[28],26.5 nM
same,TGI,[28],1530 nM
same,GI50,[29],1330 nM
same,TGI,[29],6.33 µM
same,GI50,[30],< 10 nM
same,TGI,[30],42.8 nM
same,GI50,[31],30.9 nM
same,TGI,[31],242 nM
same,GI50,[32],30.8 nM
same,TGI,[32],1430 nM
same,GI50,[33],< 10 nM
same,TGI,[33],< 10 nM
same,GI50,[34],13.5 nM
same,TGI,[34],42.1 nM
same,GI50,[35],10.4 nM
same,TGI,[35],26.8 nM
same,GI50,[36],< 10 nM
same,TGI,[36],410 nM
same,GI50,[37],< 10 nM
same,TGI,[37],14.7 nM
same,GI50,[38],< 10 nM
same,TGI,[38],10.8 nM
same,GI50,[39],13.5 nM
same,TGI,[39],51.5 nM
same,GI50,[40],21.4 nM
same,TGI,[40],160 nM
same,GI50,[41],26.1 nM
same,TGI,[41],1270 nM
same,GI50,[42],< 10 nM
same,TGI,[42],1340 nM
same,GI50,[43],93.2 nM
same,TGI,[43],10.5 µM
same,GI50,[44],16.7 nM
same,TGI,[44],1160 nM
same,GI50,[45],< 10 nM
same,TGI,[45],53.7 nM
same,GI50,[46],246 nM
same,TGI,[46],3.44 µM
same,GI50,[47],< 10 nM
same,TGI,[47],19.3 nM
same,GI50,[48],< 10 nM
same,TGI,[48],< 10 nM
same,GI50,[49],< 10 nM
same,TGI,[49],< 10 nM
